Source: BindingDB's records for doi:10.1073/pnas.92.19.8734 (Massachusetts General Hospital, 1995)

Legend:
[1] = target: T1, Melatonin receptor type 1B (Homo sapiens, UniProt P49286)
T1 sequence (P49286 whole entry): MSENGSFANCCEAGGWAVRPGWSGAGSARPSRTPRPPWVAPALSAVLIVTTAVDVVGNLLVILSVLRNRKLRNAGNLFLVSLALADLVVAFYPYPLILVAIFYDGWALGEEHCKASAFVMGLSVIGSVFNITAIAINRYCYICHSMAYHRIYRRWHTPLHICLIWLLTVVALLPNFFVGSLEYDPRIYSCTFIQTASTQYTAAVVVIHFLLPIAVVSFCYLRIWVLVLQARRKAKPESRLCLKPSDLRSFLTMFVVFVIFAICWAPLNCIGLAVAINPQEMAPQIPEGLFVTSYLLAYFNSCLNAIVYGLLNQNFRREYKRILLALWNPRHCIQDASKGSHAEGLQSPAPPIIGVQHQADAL

[2] = target: Melatonin receptor type 1A (Homo sapiens, UniProt P48039)
Melatonin receptor type 1A, sequence (P48039 whole entry): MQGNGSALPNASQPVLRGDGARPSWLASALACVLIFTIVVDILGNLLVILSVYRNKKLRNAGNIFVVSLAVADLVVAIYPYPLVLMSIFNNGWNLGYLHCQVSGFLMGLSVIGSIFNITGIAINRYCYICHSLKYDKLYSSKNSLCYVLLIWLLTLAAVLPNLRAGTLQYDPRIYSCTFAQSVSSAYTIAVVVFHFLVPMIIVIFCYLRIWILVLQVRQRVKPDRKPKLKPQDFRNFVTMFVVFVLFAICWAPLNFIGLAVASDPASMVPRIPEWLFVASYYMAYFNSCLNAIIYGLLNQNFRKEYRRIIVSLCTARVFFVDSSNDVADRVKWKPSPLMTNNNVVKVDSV

Compound	Ki [1]	Ki [2]
NCCc1c[nH]c2ccc(O)cc12 [[3H]-5-HT]	> 10 µM	–
CC(=O)n1cc(CCN)c2cc(O)ccc21 [NSC_260803]	0.595 µM	986 nM
COc1cc2nc(N3CCN(C(=O)c4ccco4)CC3)nc(N)c2cc1OC [[3H]-Minipress]	> 10 µM	> 10000 nM
